Results published in patent US20240301319A1, “PERFUMING COMPOSITIONS” (FIRMNICH SA, priority 2017, published 2024).
“And” between values parts separate entries of the source, which are not always exact repeats. Equal values may be shown once.

Legend:
[1] = Volatility of perfuming compounds (Tables 4 to 10), with top/middle/bottom note type; format: physicochemical
Summary of the method: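 Note type follows from air volatility (μg/l): bottom 49–0.1, middle 99–50, top 70,000–100. Compounds are listed within watery, green, fruity, citrus, sweet, gourmand and woody families.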

[2] = Odor threshold and odor value of perfuming compounds (Tables 4 to 10)
[3] = Log P (n-octanol/water) of perfuming compounds (Tables 4 to 10)
[4] = note type (Top/Middle/Bottom) by volatility, perfuming compounds having a green note
[5] = perfuming compounds having a green note
[6] = n-octanol/water, perfuming compounds having a green note
[7] = Table 6, perfuming compounds having a fruity note
[8] = Table 6, perfuming compounds having a fruity note, note type by volatility
[9] = Table 9, perfuming compounds having a gourmand note, note type by volatility
[10] = Table 8, perfuming compounds having a sweet note
[11] = Table 8, perfuming compounds having a sweet note, note type by volatility
[12] = Table 10, perfuming compounds having a woody note, note type by volatility
[13] = Table 7, citrus note, top, middle or bottom note
[14] = Table 7, citrus note, equals volatility divided by odor threshold
[15] = Table 4, watery note, top, middle or bottom note
[16] = Table 4, watery note, equals volatility divided by odor threshold

SMILES: C=C(C)[C@@H]1CC=C(CO)CC1
- Type [1, 4]: Bottom
- Volatility (μg/l air) [1, 5]: 33.78 μg/l air
- Odor Threshold (μg/l air) [2, 5]: 2.07E−02 μg/l air
- Log P (n-octanol/water) [3, 6]: 2.68

SMILES: CC(=O)CCC=C(C)C [6-METHYL-5-HEPTEN-2-ONE]
- Volatility [1, 7]: 5775.94 μg/l air
- Type [1, 8]: TOP (perfuming compounds having a volatility ranging from 70,000 to 100 μg/l in air are referred to as “top notes”)
- Type [1, 4]: Top
- Volatility (μg/l air) [1, 5]: 5775.94 μg/l air
- Odor Threshold (μg/l air) [2, 5]: 1.06E−01 μg/l air
- Log P (n-octanol/water) [3, 7]: 2.05
- Log P (n-octanol/water) [3, 6]: 2.05

SMILES: CCCCC1CCC(=O)O1 (racemic) [(+−)-4-OCTANOLIDE]
- Volatility [1, 7]: 108.41 μg/l air
- Type [1, 8]: TOP (perfuming compounds having a volatility ranging from 70,000 to 100 μg/l in air are referred to as “top notes”)
- Volatility ([1]; Table 9, gourmand note): 108.41 μg/l air
- Type [1, 9]: Top
- Odor Threshold [2, 7]: 2.32E−05 μg/l air
- Odor Value [2, 7]: 4.67E+06
- Odor Threshold ([2]; Table 9, gourmand note): 2.32E−05 μg/l air
- Log P (n-octanol/water) [3, 7]: 1.80
- Log P (n-octanol/water) ([3]; Table 9, gourmand note): 1.80

SMILES: COc1ccc(C=O)cc1 [4-METHOXYBENZALDEHYDE]
- Type [1, 4]: Middle
- Volatility (μg/l air) [1, 5]: 98.47 μg/l air
- Odor Threshold (μg/l air) [2, 5]: 1.81E−05 μg/l air
- Log P (n-octanol/water) [3, 6]: 1.56

SMILES: Cc1ccc2c(c1)OCC(=O)CO2 [7-methyl-2H-1,5-benzodioxepin-3(4H)-one]
- Log P (n-octanol/water) [3, 6]: 3.40 and 3.53

SMILES: CC(OC=O)C1CCCC(C)(C)C1 (stereo not shown)
- Volatility [1, 7]: 1129.46 μg/l air
- Type [1, 8]: TOP (perfuming compounds having a volatility ranging from 70,000 to 100 μg/l in air are referred to as “top notes”)
- Log P (n-octanol/water) [3, 7]: 4.01

SMILES: CC(O)c1ccccc1 (stereo not shown) [1-PHENYL-1-ETHANOL]
- Volatility [1, 7]: 470.00 μg/l air
- Type [1, 8]: TOP (perfuming compounds having a volatility ranging from 70,000 to 100 μg/l in air are referred to as “top notes”)
- Log P (n-octanol/water) [3, 7]: 1.42

SMILES: C=CC(CCCCC)OC(C)=O (racemic) [(+−)-1-PENTYL-2-PROPENYL ACETATE]
- Volatility [1, 7]: 1506.95 μg/l air
- Type [1, 8]: TOP (perfuming compounds having a volatility ranging from 70,000 to 100 μg/l in air are referred to as “top notes”)
- Log P (n-octanol/water) [3, 7]: 3.79

SMILES: C/C=C/C(=O)C1C(C)=CCCC1(C)C (racemic)
- Type [1, 8]: TOP (perfuming compounds having a volatility ranging from 70,000 to 100 μg/l in air are referred to as “top notes”)
- Volatility [1, 10]: 110.53 μg/l air
- Type [1, 11]: Top
- Type [1, 12]: Top
- Volatility ([1]; Table 10, woody note): 110.53 μg/l air
- Type [1, 4]: Top
- Volatility (μg/l air) [1, 5]: 110.53 μg/l air
- Odor Threshold [2, 7]: 1.04E−04 μg/l air
- Odor Threshold [2, 10]: 1.04E−04 μg/l air
- Odor Value [2, 10]: 1.06E+06
- Odor Threshold ([2]; Table 10, woody note): 1.04E−04 μg/l air
- Odor Threshold (μg/l air) [2, 5]: 1.04E−04 μg/l air

SMILES: COC(=O)Cc1ccccc1 [METHYL PHENYLACETATE]
- Volatility [1, 7]: 555.30 μg/l air
- Type [1, 8]: TOP (perfuming compounds having a volatility ranging from 70,000 to 100 μg/l in air are referred to as “top notes”)
- Volatility [1, 10]: 555.30 μg/l air
- Type [1, 11]: Top
- Volatility ([1]; Table 9, gourmand note): 555.30 μg/l air
- Type [1, 9]: Top
- Odor Threshold [2, 10]: 3.21E−04 μg/l air
- Odor Value [2, 10]: 1.73E+06
- Odor Threshold ([2]; Table 9, gourmand note): 3.21E−04 μg/l air

SMILES: C=C(C)CC(C(C)=O)C(=O)OCC (racemic)
- Volatility [1, 7]: 295.22 μg/l air
- Type [1, 8]: TOP (perfuming compounds having a volatility ranging from 70,000 to 100 μg/l in air are referred to as “top notes”)
- Type [1, 4]: Top
- Volatility (μg/l air) [1, 5]: 295.22 μg/l air
- Odor Threshold (μg/l air) [2, 5]: 3.64E−03 μg/l air

SMILES: O=C1CCCCCCC/C=C/CCCCCCO1 [(10E)-oxacycloheptadec-10-en-2-one]
- Volatility [1, 7]: 0.74 μg/l air
- Type [1, 8]: Bottom
- Volatility (μg/l air) ([1]; Table 7, citrus note): 0.74 μg/l air
- Type [1, 13]: Bottom
- Odor Threshold [2, 7]: 4.77E−04 μg/l air
- Odor Value [2, 7]: 1.55E+03
- Odor Threshold (μg/l air) ([2]; Table 7, citrus note): 4.77E−04 μg/l air
- Odor Value [2, 14]: 1.55E+03

SMILES: CCC(CC(C)CC)=NO (stereo not shown) [5-METHYL-3-HEPTANONEOXIME]
- Volatility ([1]; Table 9, gourmand note): 128.04 μg/l air
- Type [1, 9]: Top
- Odor Threshold ([2]; Table 9, gourmand note): 8.80E−03 μg/l air

SMILES: CCCCCCCC(=O)OCC [ethyl octanoate]
- Type [1, 4]: Top
- Volatility (μg/l air) [1, 5]: 800.05 μg/l air
- Odor Threshold (μg/l air) [2, 5]: 5.30E−03 μg/l air

SMILES: CC(C)=CCCC1=CCC(C)(C=O)CC1 (racemic)
- Volatility (μg/l air) ([1]; Table 4, watery note): 26.54 μg/l air
- Type [1, 15]: bottom (perfuming compounds having a volatility ranging from 49 to 0.1 μg/l in air are referred to as “bottom notes”)
- Odor Threshold (μg/l air) ([2]; Table 4, watery note): 2.72E−02 μg/l air
- Odor Value [2, 16]: 9.76E+02

SMILES: CC1=CCC2C(C1)C1CC2C2(C1)OC2C (racemic)
- Volatility [1, 7]: 36.76 μg/l air
- Type [1, 8]: Bottom
- Type [1, 4]: Bottom
- Volatility (μg/l air) [1, 5]: 36.76 μg/l air
- Odor Threshold [2, 7]: 9.93E−04 μg/l air
- Odor Value [2, 7]: 3.70E+04
- Odor Threshold (μg/l air) [2, 5]: 9.93E−04 μg/l air

SMILES: C=CC(C)(CCC=C(C)C)OC(C)=O (racemic) [(+−)-1,5-DIMETHYL-1-VINYL-4-HEXENYL ACETATE]
- Type [1, 8]: TOP (perfuming compounds having a volatility ranging from 70,000 to 100 μg/l in air are referred to as “top notes”)
- Type [1, 13]: Top
- Type [1, 4]: Top
- Volatility (μg/l air) [1, 5]: 339.21 μg/l air
- Odor Threshold (μg/l air) ([2]; Table 7, citrus note): 7.40E−02 μg/l air
- Odor Threshold (μg/l air) [2, 5]: 7.40E−02 μg/l air

SMILES: COc1ccc(CC(C)C=O)cc1 (racemic) [(+−)-3-(4-methoxyphenyl)-2-methylpropanal]
- Volatility (μg/l air) ([1]; Table 4, watery note): 18.99 μg/l air
- Type [1, 15]: bottom (perfuming compounds having a volatility ranging from 49 to 0.1 μg/l in air are referred to as “bottom notes”)
- Type [1, 4]: Bottom
- Volatility (μg/l air) [1, 5]: 18.99 μg/l air
- Odor Threshold (μg/l air) ([2]; Table 4, watery note): 9.79E−03 μg/l air
- Odor Value [2, 16]: 1.94E+03
- Odor Threshold (μg/l air) [2, 5]: 9.79E−03 μg/l air

SMILES: CC(=O)c1ccccc1 [1-phenylethanone]
- Volatility [1, 10]: 1728.98 μg/l air
- Type [1, 11]: Top
- Odor Threshold [2, 10]: 6.61E−03 μg/l air
- Odor Value [2, 10]: 2.62E+05

SMILES: CCC(C)(O)CCCC(C)C (racemic)
- Type [1, 4]: Top
- Volatility (μg/l air) [1, 5]: 421.15 μg/l air
- Odor Threshold (μg/l air) [2, 5]: 3.45E−03 μg/l air

SMILES: CCCCCCOC(=O)c1ccccc1O [HEXYL 2-HYDROXYBENZOATE]
- Volatility [1, 7]: 3.82 μg/l air
- Type [1, 8]: Bottom
- Volatility (μg/l air) ([1]; Table 7, citrus note): 3.82 μg/l air
- Type [1, 13]: Bottom
- Type [1, 4]: Bottom
- Volatility (μg/l air) [1, 5]: 3.82 μg/l air
- Odor Threshold [2, 7]: 5.50E−03 μg/l air
- Odor Value [2, 7]: 6.95E+02
- Odor Threshold (μg/l air) ([2]; Table 7, citrus note): 5.50E−03 μg/l air
- Odor Value [2, 14]: 6.95E+02
- Odor Threshold (μg/l air) [2, 5]: 5.50E−03 μg/l air

SMILES: CC1=CCC(/C=C/C(C)C(C)O)C1(C)C (stereo not shown)
- Type [1, 12]: Bottom
- Volatility ([1]; Table 10, woody note): 20.41 μg/l air
- Odor Threshold ([2]; Table 10, woody note): 9.56E−05 μg/l air

SMILES: CC(C=O)Cc1ccc2c(c1)OCO2 (racemic) [(+−)-3-(1,3-BENZODIOXOL-5-YL)-2-METHYLPROPANAL]
- Volatility (μg/l air) ([1]; Table 4, watery note): 3.57 μg/l air
- Type [1, 15]: bottom (perfuming compounds having a volatility ranging from 49 to 0.1 μg/l in air are referred to as “bottom notes”)
- Odor Threshold (μg/l air) ([2]; Table 4, watery note): 2.23E−04 μg/l air
- Odor Value [2, 16]: 1.60E+04

SMILES: C=CCOC(=O)COC1CCCCC1 [ALLYL (CYCLOHEXYLOXY)ACETATE]
- Volatility [1, 7]: 47.01 μg/l air
- Type [1, 8]: Bottom
- Type [1, 4]: Bottom
- Volatility (μg/l air) [1, 5]: 47.01 μg/l air
- Odor Threshold [2, 7]: 4.66E−05 μg/l air
- Odor Value [2, 7]: 1.01E+06
- Odor Threshold (μg/l air) [2, 5]: 4.66E−05 μg/l air
